Test [1] deals with T1, human GPR40 (Homo sapiens, UniProt O14842).
T1 construct: expressed in transfected cells
Nature of the test: GPR40 calcium flux assay, human GPR40. Type of test: cell-based. Particulars: HEK293 cells stably expressing GPR40; table does not say human or rat. Summed up:
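Cells preincubated 1 h at 37° C. in HBSS, 20 mM HEPES, 0.1% BSA, then Fluo 8 calcium dye 30 min at 37° C. and 15 min at room temperature.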

Test [2] has as its target T2, Human GPR120 short form (Homo sapiens, UniProt Q5NUL3).
T2 construct: expressed in transfected cells
T2 sequence (Q5NUL3 1-361): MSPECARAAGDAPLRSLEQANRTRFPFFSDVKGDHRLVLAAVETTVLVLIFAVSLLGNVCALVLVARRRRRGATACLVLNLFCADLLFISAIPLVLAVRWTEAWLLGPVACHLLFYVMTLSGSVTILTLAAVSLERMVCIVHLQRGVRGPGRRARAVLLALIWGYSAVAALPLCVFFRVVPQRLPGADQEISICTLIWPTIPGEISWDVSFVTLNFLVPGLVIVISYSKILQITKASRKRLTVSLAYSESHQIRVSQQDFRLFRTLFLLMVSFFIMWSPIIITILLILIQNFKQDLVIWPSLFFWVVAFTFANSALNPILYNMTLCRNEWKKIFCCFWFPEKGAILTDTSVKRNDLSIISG
Nature of the test: Human GPR120 calcium flux assay, Procedure Calcium B (4200 cells/well). The test is classed as cell-based. Summed up:
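HEK293 cells stably expressing human GPR120 (NM_001195755.1), 4200 cells/well, starved 1 h and loaded with Fluo-4 NW plus probenecid. Ligand-evoked calcium flux read on FLIPR for 300 s after a 10 s baseline. RFU = Fmax−Fmin; EC50 from four-parameter concentration-response fit.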
A general note: Calcium assays in cells follow changes in intracellular calcium, usually with a dye or a luminescent sensor.

T1 sequence (O14842 whole entry): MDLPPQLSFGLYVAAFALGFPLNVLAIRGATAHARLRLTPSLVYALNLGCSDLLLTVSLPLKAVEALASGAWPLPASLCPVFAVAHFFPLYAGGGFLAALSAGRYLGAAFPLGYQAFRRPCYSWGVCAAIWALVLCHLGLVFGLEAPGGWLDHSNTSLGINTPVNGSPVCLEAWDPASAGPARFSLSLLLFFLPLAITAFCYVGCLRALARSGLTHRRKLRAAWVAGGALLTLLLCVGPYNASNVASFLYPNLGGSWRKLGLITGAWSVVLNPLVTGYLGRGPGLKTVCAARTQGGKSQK

As to `O=C(O)CCc1ccc(OCC2=C(C3CCCCC3)CCCC2)cc1Cl` [Compound 602, 3-[2-chloro-4-[(2-cyclohexylcyclohexen-1-yl)methoxy]phenyl]Propanoic Acid], the EC50 (usually the midpoint of the concentration-response curve) was determined as 1.06 µM in test [1] and 2.41 µM in test [2].
Take `CCc1cc(OCC2=C(C3CCCC3)CCC2)ccc1CCC(=O)O` [Compound 423, 3-[4-[(2-cyclopentylcyclopenten-1-yl)methoxy]-2-ethyl-phenyl]Propanoic Acid]: the concentration for a half-maximal effect (EC50) worked out at 0.061 µM in test [1] and 0.272 µM in test [2].
`O=C(O)CCc1ccc(OCC2=C(C3CCC3)CC(F)(F)C2)cc1Cl` [Compound 430, 3-[2-chloro-4-[(2-cyclobutyl-4,4-difluoro-cyclopenten-1-yl)methoxy]phenyl]Propanoic Acid]: the EC50 in test [1] stood at 0.046 µM; in test [2] it was 0.335 µM.
The corresponding values for `O=C(O)CCc1ccc(OCC2=C(CCc3ccccc3)CCC2)cc1C(F)(F)F` [Compound 372, 3-[4-[(2-phenethylcyclopenten-1-yl)methoxy]-2-(trifluoromethyl)phenyl]Propanoic Acid] are 0.197 µM and 2.35 µM.
The like results for `O=C(O)CCc1ccc(OCC2=C(C3CCC3)CCC2)cc1Cl` [Compound 400, 3-[2-chloro-4-[(2-cyclobutylcyclopenten-1-yl)methoxy]phenyl]Propanoic Acid] were, in that order, 0.135 µM and 0.995 µM.
`Cc1ccc(C2=C(COc3ccc(CCC(=O)O)c(C(F)(F)F)c3)CCC2)c(F)c1` [Compound 283, 3-[4-[[2-(2-fluoro-4-methyl-phenyl)cyclopenten-1-yl]methoxy]-2-(trifluoromethyl)phenyl]Propanoic Acid]: the EC50 in test [1] came to 0.355 µM; in test [2], 0.236 µM.
The like results for `CC(C)CC1=C(COc2ccc(CCC(=O)O)cc2)CCCC1` [Compound 578, 3-[4-[(2-isobutylcyclohexen-1-yl)methoxy]phenyl]Propanoic Acid] were, in that order, 2.14 µM and 1.78 µM.
The like results for `CCc1ccc(C2=C(COc3ccc(CCC(=O)O)c(C(F)(F)F)c3)CCC2)cc1` [Compound 294, 3-[4-[[2-(4-ethylphenyl)cyclopenten-1-yl]methoxy]-2-(trifluoromethyl)phenyl]Propanoic Acid] were, in that order, 3.51 µM and more than 5 µM.
For the molecule `CC1CCC(c2ccccc2)=C1COc1ccc(CCC(=O)O)c(C(F)(F)F)c1` (centres unmarked) [Compound 367, 3-[4-[(5-methyl-2-phenyl-cyclopenten-1-yl)methoxy]-2-(trifluoromethyl)phenyl]Propanoic Acid], the 50% effective concentration (EC50) came out at 1.51 µM in test [1] and 1.14 µM in test [2].
The like results for `CC1CCC(c2ccc(Cl)cc2)=C1COc1ccc(CCC(=O)O)c(Cl)c1` (centres unmarked) [Compound 337, 3-[2-chloro-4-[[2-(4-chlorophenyl)-5-methyl-cyclopenten-1-yl]methoxy]phenyl]Propanoic Acid] were, in that order, 0.519 µM and 0.336 µM.
The corresponding values for `Cc1ccc(C2=C(COc3ccc(CCC(=O)O)c(C(F)(F)F)c3)CC(F)(F)C2)cc1` [Compound 249, 3-[4-[[4,4-difluoro-2-(p-tolyl)cyclopenten-1-yl]methoxy]-2-(trifluoromethyl)phenyl]Propanoic Acid] are 0.463 µM and 0.173 µM.
With `Cc1cc(OCC2=C(C3CC3)CCC2)c(F)cc1CCC(=O)O` [Compound 373, 3-[4-[(2-cyclopropylcyclopenten-1-yl)methoxy]-5-fluoro-2-methyl-phenyl]Propanoic Acid], the values for the EC50 in test [1] and in test [2] were 2.38 µM and 1.45 µM, respectively.
On to `C=C(Br)c1cc(OCC2=C(C3CCCC3)CCC2)ccc1CCC(=O)O` [Compound 448, 3-[2-(1-bromovinyl)-4-[(2-cyclopentylcyclopenten-1-yl)methoxy]phenyl]Propanoic Acid], for which the EC50 in test [1] is 2.04 µM; in test [2], more than 5 µM.
In the case of `O=C(O)CCc1ccc(OCC2=C(c3ccc(Cl)cc3F)CCC2)cc1Cl` [Compound 275], the EC50 in test [1] turned out to be 0.286 µM; in test [2], 0.307 µM.
As for `O=C(O)CCc1ccc(OCC2=C(Cc3ccccc3)CCC2)cc1Cl` [Compound 329, 3-[4-[(2-benzylcyclopenten-1-yl)methoxy]-2-chloro-phenyl]Propanoic Acid], the EC50 came out at 0.101 µM in test [1] and 1.6 µM in test [2].
On to `[2H]C([2H])([2H])c1ccc(C2=C(COc3ccc(CCC(=O)O)c(C(F)(F)F)c3)CCC2)cc1` [Compound 268-D, 3-[4-[[2-[4-(trideuteriomethyl)phenyl]cyclopenten-1-yl]methoxy]-2-(trifluoromethyl)phenyl]Propanoic Acid], for which the concentration giving a half-maximal response (EC50) in test [1] came to 0.992 µM; in test [2] it was 0.685 µM.
The like results for `Cc1c(CCC(=O)O)cc(F)c(OCC2=C(c3ccc(F)cc3)CCC2)c1C` [Compound 254, 3-[5-fluoro-4-[[2-(4-fluorophenyl)cyclopenten-1-yl]methoxy]-2,3-dimethyl-phenyl]Propanoic Acid] were, in that order, more than 5 µM and 0.594 µM.
For `Cc1ccc(C2=C(COc3c(F)cc(CCC(=O)O)cc3F)CCC2)o1` [Compound 212, 3-[3,5-difluoro-4-[[2-(5-methyl-2-furyl)cyclopenten-1-yl]methoxy]phenyl]Propanoic Acid], the EC50 in test [1] and in test [2] was more than 5 µM in each case.
Consider `Cc1cc(OCC2=C(c3ccccc3Cl)CCC2)c(F)cc1CCC(=O)O` [Compound 265, 3-[4-[[2-(2-chlorophenyl)cyclopenten-1-yl]methoxy]-5-fluoro-2-methyl-phenyl]Propanoic Acid], for which the half-maximal effective concentration (EC50) in test [1] amounted to 1.14 µM; in test [2], 1.21 µM.
The corresponding values for `O=C(O)CCc1ccc(OCC2=C(Cc3ccc(Cl)cc3)CCC2)cc1Cl` [Compound 356, 3-[2-chloro-4-[[2-[(4-chlorophenyl)methyl]cyclopenten-1-yl]methoxy]phenyl]Propanoic Acid] are 0.068 µM and 2.54 µM.
The like results for `CCC(CC)C1=C(COc2ccc(CCC(=O)O)c(C(F)(F)F)c2)CCC1` [Compound 380, 3-[4-[[2-(1-ethylpropyl)cyclopenten-1-yl]methoxy]-2-(trifluoromethyl)phenyl]Propanoic Acid] were, in that order, 0.084 µM and more than 5 µM.
The like results for `COC1CCC(c2ccccc2C)=C(COc2ccc(CCC(=O)O)c(C(F)(F)F)c2)C1` (centres unmarked) [Compound 576, 3-[4-[[5-methoxy-2-(o-tolyl)cyclohexen-1-yl]methoxy]-2-(trifluoromethyl)phenyl]Propanoic Acid] were, in that order, 1.57 µM and more than 5 µM.
Turning to `O=C(O)CCc1ccc(OCC2=C(c3ccc(Br)cc3)CC(F)(F)C2)cc1Cl` [Compound 393, 3-[4-[[2-(4-bromophenyl)-4,4-difluoro-cyclopenten-1-yl]methoxy]-2-chloro-phenyl]Propanoic Acid], the concentration giving a half-maximal response (EC50) in test [1] came to 0.42 µM; in test [2] it was 0.291 µM.
On to `CC1CCC(COc2ccc(CCC(=O)O)c(Cl)c2)=C1c1ccccc1` (centres unmarked) [Compound 320, 3-[2-chloro-4-[(3-methyl-2-phenyl-cyclopenten-1-yl)methoxy]phenyl]Propanoic Acid], for which the concentration for a half-maximal effect (EC50) amounted to 0.543 µM in test [1] and 0.998 µM in test [2].
As for `Cc1cc(OCC2=C(c3ccc(Br)cc3)CC(F)(F)C2)c(F)cc1CCC(=O)O` [Compound 392, 3-[4-[[2-(4-bromophenyl)-4,4-difluoro-cyclopenten-1-yl]methoxy]-5-fluoro-2-methyl-phenyl]Propanoic Acid], the EC50 in test [1] was found to be 1.4 µM; in test [2] it was 0.223 µM.
The like results for `O=C(O)CCc1ccc(OCC2=C(c3cccc(F)c3)CCC2)cc1Cl` [Compound 297, 3-[2-chloro-4-[[2-(3-fluorophenyl)cyclopenten-1-yl]methoxy]phenyl]Propanoic Acid] were, in that order, 0.588 µM and 0.422 µM.
The corresponding values for `Cc1cc(OCC2=C(c3ccc(F)cc3)CC(F)(F)C2)c(F)cc1CCC(=O)O` [Compound 402, 3-[4-[[4,4-difluoro-2-(4-fluorophenyl)cyclopenten-1-yl]methoxy]-5-fluoro-2-methyl-phenyl]Propanoic Acid] are 1.09 µM and 0.278 µM.
Regarding `CC(C)CCC1=C(COc2ccc(CCC(=O)O)c(C(F)(F)F)c2)CCC1` [Compound 374, 3-[4-[(2-isopentylcyclopenten-1-yl)methoxy]-2-(trifluoromethyl)phenyl]Propanoic Acid], the values for the half-maximal effective concentration (EC50) in test [1] and in test [2] were 0.199 µM and 1.43 µM, respectively.
In the case of `O=C(O)CCc1ccc(OCC2=C(C3CCCC3)CC(F)(F)C2)cc1F` [Compound 457, 3-[4-[(2-cyclopentyl-4,4-difluoro-cyclopenten-1-yl)methoxy]-2-fluoro-phenyl]Propanoic Acid], the EC50 in test [1] is 0.046 µM; in test [2], 0.126 µM.
Take `Cc1ccc(C2=C(COc3ccc(CCC(=O)O)c(C(F)(F)F)c3)CCC2)cc1` [Compound 307, 3-[4-[[2-(p-tolyl)cyclopenten-1-yl]methoxy]-2-(trifluoromethyl)phenyl]Propanoic Acid]: the half-maximal effective concentration (EC50) in test [1] amounted to 0.516 µM; in test [2], 0.288 µM.
Take `COC1CCC(c2ccc(C)cc2)=C(COc2ccc(CCC(=O)O)c(C(F)(F)F)c2)C1` (centres unmarked) [Compound 577, 3-[4-[[5-methoxy-2-(p-tolyl)cyclohexen-1-yl]methoxy]-2-(trifluoromethyl)phenyl]Propanoic Acid]: the figures for the concentration giving a half-maximal response (EC50) in test [1] and in test [2] were 3.01 µM and 1.1 µM, respectively.

The record behind these values is patent publication US11230526B1, “Cylcoalkenyl derivatives useful as agonists of the GPR120 and/or GPR40 receptors” (Janssen Pharmaceutica NV, priority 2018, dated 2022).
